Laboratory results as given in paper PMC6445163, “Design, synthesis, and evaluation of novel 2-phenylpropionic acid derivatives as dual COX inhibitory-antibacterial agents” (Journal of Enzyme Inhibition and Medicinal Chemistry, 2017).
Where two headings read alike, the source gives them in different places. Marks after values point to notes of the source that are not given here.

How the values were obtained:
[1] = tested on: Salmonella typhimurium TA100 (base-pair substitutions); test: Ames MPF mutagenicity assay, TA100; format: cell-based; conditions: for mutagenicity classification against TA100: presence or absence of metabolic activation (S9)
Procedure: (§1) Salmonella typhimurium strains, TA98 (frameshift mutations) and TA100 (base-pair substitutions), are used in this assay. Concentration range of the compounds was between […] and 5000 µg/mL according to the previous guidelines. Compounds were prepared in six different concentrations (5, 2.5, 1.25, 0.625, 0.3125 and 0.156 mg/mL) in DMSO. Mutagenic potential was determined in absence and presence of Aroclor™-1254 induced male Sprague–Dawley rat liver microsomal enzyme (S9) mix (Xenometrix AG, Switzerland). Positive controls without S9 mix were 2-Nitrofluorene (2 µg/mL) and 4-nitroquinoline N-oxide (0.1 µg/mL) whereas 1 and 2.5 µg/mL of 2-aminoanthracene solutions were used as positive controls with S9 against TA 98 and TA100, respectively. Solvent control was prepared with 4% DMSO. At the end of the experiment, revertant bacteria dropped the pH of solution and indicator medium color was changed to yellow. Yellow wells were counted as positive and compared with the negative control. Fold induction over the negative control and fold induction over the baseline were calculated. Fold induction over the negative control is the ratio of the mean number of positive wells for the dose concentration divided by the mean number of positive wells for the zero dose (negative) control. Fold induction over the baseline is the ratio of the mean number of positive wells for the dose concentration divided by zero dose baseline. The zero dose baseline is obtained by adding one standard deviation to the mean number of positive wells of the zero dose control. Mutagenicity was determined according to the criteria from previous studies[52]^,[56]. For a value ≤3 and significant increases between two and three-fold the baselines were classified as a weak mutagen, and increases ≥ three-fold the baselines were classified as a mutagen. […] As a rule, at least two adjacent doses with significant increases or a significant increase at the highest dose level should be observed for a mutagenic compound. All doses were compared according to Student’s t-test at p < .05 for statistical significance.
(§2) Ames assay was performed to investigate the genotoxicity of compounds 6h and 6l.

[2] = tested on: NIH/3T3 mouse embryonic fibroblast cell line; test: MTT cytotoxicity test
Procedure: (§3) NIH/3T3 cells were incubated according to the supplier’s recommendations. NIH/3T3 cells were seeded at 1 × 10^4 cells into each well of 96-well plates. MTT assay was performed as previously described[51]^,[52].
(§4) There are a number of requirements to be fulfilled for successful new drug development. […] This assay is based upon the reduction of yellow MTT dye by metabolically active eukaryotic and prokaryotic cells to form the purple formazan product. The assay is generally used to examine cell viability and to estimate cell culture growth[66]^,[67].

MTT cytotoxicity test = conditions: mouse, NIH/3T3 mouse embryonic fibroblast cells
Procedure: as §3, §4

COX-2 = biological target: T1, COX-2 (Homo sapiens, UniProt P35354); test: fluorometric COX-2 inhibitor screening kit assay; format: biochemical; conditions: 25 °C
T1 construct: purchased Biovision K547-100
T1 sequence (P35354 18-604): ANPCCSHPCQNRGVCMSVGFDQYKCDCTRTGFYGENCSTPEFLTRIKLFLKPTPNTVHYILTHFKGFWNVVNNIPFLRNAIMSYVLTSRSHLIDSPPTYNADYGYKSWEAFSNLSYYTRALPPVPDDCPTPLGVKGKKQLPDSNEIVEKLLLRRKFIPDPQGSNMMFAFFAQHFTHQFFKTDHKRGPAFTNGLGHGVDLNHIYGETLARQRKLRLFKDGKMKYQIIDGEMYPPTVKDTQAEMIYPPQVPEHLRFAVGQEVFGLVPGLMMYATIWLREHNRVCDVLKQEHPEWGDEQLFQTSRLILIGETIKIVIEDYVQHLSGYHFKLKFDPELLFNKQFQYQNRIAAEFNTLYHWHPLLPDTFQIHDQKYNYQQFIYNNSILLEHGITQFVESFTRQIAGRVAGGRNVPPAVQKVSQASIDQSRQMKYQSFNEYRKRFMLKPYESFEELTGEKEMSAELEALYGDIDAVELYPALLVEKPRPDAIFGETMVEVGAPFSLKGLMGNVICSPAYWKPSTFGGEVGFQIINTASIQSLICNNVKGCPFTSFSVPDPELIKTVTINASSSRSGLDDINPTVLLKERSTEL
Procedure: Inhibitory potency of the compounds against COX-1 and COX-2 enzymes was determined using fluorometric COX-1 and COX-2 inhibitor screening kits (Biovision, Zurich, Switzerland). Experimental protocol was followed as described in the guides of the supplier[47]^,[48]. All of the pipettings in the assay were performed by Biotek Precision robotic system (BioTek Instruments, Inc., Winooski, VT). […] Appropriate two points (T1 and T2) in the linear range of the plot were chosen, and the corresponding fluorescence values (RFU1 and RFU2) were obtained. The slope for all samples, including enzyme control (EC), by dividing the net ΔRFU (RFU2–RFU1) values by the time ΔT (T2–T1) were calculated by using following equation: % Relative inhibition=(Slope of EC-Slope of S/Slope of EC)×100
This initial in vitro assay was done with two concentrations (10^−3 and 10^−4 M) for all compounds. […] The IC50 value was calculated from the plots of enzyme activity against concentrations by applying regression analyses on GraphPad Prism Version 5 (GraphPad Software, La Jolla, CA).
Selectivity indexes (SI) were expressed as IC50 (COX-1)/IC50 (COX-2). Selectivity toward COX-2 decreases as the corresponding SI decreases while selectivity toward COX-1 isoform increases as the corresponding SI decreases.

[3] = tested on: Salmonella typhimurium TA98 (frameshift mutations); format: cell-based; conditions: for mutagenicity classification against TA98: presence/absence of metabolic activation (S9)
Procedure: as §1, §2

[4] = tested on: TA100 (base-pair substitutions); test: Ames MPF mutagenicity assay, TA100; format: cell-based, Salmonella typhimurium; conditions: Salmonella typhimurium; each concentration, with and without S9; read-out: Fold inductions over baseline, TA 100
Procedure: as §1, §2

COc1ccc2sc(SCc3ccc(C(C)C(=O)O)cc3)nc2c1 (centres unmarked) [Compound 6h, 2-(4-(((5-Methoxybenzo[d]thiazol-2-yl)thio)methyl)phenyl)propanoic acid]
melting point: 166.5 to 168.2 °C
Revertants fold increase (over baseline) TA 100 S9+ ([1]; 0.156 mg/mL): 0.60
Revertants fold increase (over baseline) TA 100 S9+ ([1]; 0.3125 mg/mL): 0.50
Revertants fold increase (over baseline) TA 100 S9− ([1]; 0.3125 mg/mL): 0.52
Revertants fold increase (over baseline) TA 100 S9+ ([1]; 0.625 mg/mL): 0.20
Revertants fold increase (over baseline) TA 100 S9− ([1]; 0.625 mg/mL): 0.70
Revertants fold increase (over baseline) TA 100 S9+ ([1]; 1.25 mg/mL): 0.25
Revertants fold increase (over baseline) TA 100 S9− ([1]; 1.25 mg/mL): 0.17
Revertants fold increase (over baseline) TA 100 S9+ ([1]; 2.5 mg/mL): 0.25
Revertants fold increase (over baseline) TA 100 S9− ([1]; 2.5 mg/mL): 1.05
Revertants fold increase (over baseline) TA 100 S9+ ([1]; 5 mg/mL): 0.20
Revertants fold increase (over baseline) TA 100 S9− ([1]; 5 mg/mL): 0.87
mutagenicity classification against TA100 [1]: did not show any mutagenicity
fold by which IC50 against COX enzymes is lower than IC50 against NIH/3T3 cells [2]: about 500 fold
IC50 (MTT cytotoxicity test): ≥ 1000 µM
IC50 (COX-2): 2.96 µM
Revertants fold increase (over baseline) TA 98 S9− ([3]; 0.156 mg/mL): 0.56
Revertants fold increase (over baseline) TA 98 S9+ ([3]; 0.3125 mg/mL): 0.52
Revertants fold increase (over baseline) TA 98 S9− ([3]; 0.3125 mg/mL): 0.56
Revertants fold increase (over baseline) TA 98 S9+ ([3]; 0.625 mg/mL): 0.70
Revertants fold increase (over baseline) TA 98 S9− ([3]; 0.625 mg/mL): 0.60
Revertants fold increase (over baseline) TA 98 S9+ ([3]; 1.25 mg/mL): 0.17
Revertants fold increase (over baseline) TA 98 S9− ([3]; 1.25 mg/mL): 0.73
Revertants fold increase (over baseline) TA 98 S9+ ([3]; 2.5 mg/mL): 1.05
Revertants fold increase (over baseline) TA 98 S9− ([3]; 2.5 mg/mL): 0.22^a
Revertants fold increase (over baseline) TA 98 S9+ ([3]; 5 mg/mL): 0.87
Revertants fold increase (over baseline) TA 98 S9− ([3]; 5 mg/mL): 0.17^a
mutagenicity classification against TA98 [3]: non-mutagenic

COc1ccc2[nH]c(SCc3ccc(C(C)C(=O)O)cc3)nc2c1 (centres unmarked) [Compound 6l, 2-(4-(((5-Methoxy-1H-benzo[d]imidazol-2-yl)thio)methyl)phenyl)propanoic acid]
melting point: 175.6 to 178.4 °C
fold induction [4]: < 1.5
Revertants fold increase (over baseline) TA 100 S9+ ([1]; 0.156 mg/mL): 0.74
Revertants fold increase (over baseline) TA 100 S9− ([1]; 0.156 mg/mL): 0.53a
Revertants fold increase (over baseline) TA 100 S9+ ([1]; 0.3125 mg/mL): 0.52
Revertants fold increase (over baseline) TA 100 S9− ([1]; 0.3125 mg/mL): 0.27^a
Revertants fold increase (over baseline) TA 100 S9+ ([1]; 0.625 mg/mL): 0.52
Revertants fold increase (over baseline) TA 100 S9− ([1]; 0.625 mg/mL): 0.13^a
Revertants fold increase (over baseline) TA 100 S9+ ([1]; 1.25 mg/mL): 0.00^a
Revertants fold increase (over baseline) TA 100 S9− ([1]; 1.25 mg/mL): 0.13^a
Revertants fold increase (over baseline) TA 100 S9+ ([1]; 2.5 mg/mL): 0.00^a
Revertants fold increase (over baseline) TA 100 S9− ([1]; 2.5 mg/mL): 0.20^a
Revertants fold increase (over baseline) TA 100 S9+ ([1]; 5 mg/mL): 0.00^a
Revertants fold increase (over baseline) TA 100 S9− ([1]; 5 mg/mL): 0.00^a
mutagenicity classification against TA100 [1]: non-mutagenic
fold by which IC50 against COX enzymes is lower than IC50 against NIH/3T3 cells [2]: about 500 fold
IC50 (MTT cytotoxicity test): ≥ 1000 µM
IC50 (COX-2): 2.34 µM
Revertants fold increase (over baseline) TA 98 S9+ ([3]; 0.156 mg/mL): 0.17^a
Revertants fold increase (over baseline) TA 98 S9− ([3]; 0.156 mg/mL): 0.57
Revertants fold increase (over baseline) TA 98 S9+ ([3]; 0.3125 mg/mL): 0.50
Revertants fold increase (over baseline) TA 98 S9− ([3]; 0.3125 mg/mL): 0.31^a
Revertants fold increase (over baseline) TA 98 S9+ ([3]; 0.625 mg/mL): 0.75
Revertants fold increase (over baseline) TA 98 S9− ([3]; 0.625 mg/mL): 0.61
Revertants fold increase (over baseline) TA 98 S9+ ([3]; 1.25 mg/mL): 0.08^a
Revertants fold increase (over baseline) TA 98 S9− ([3]; 1.25 mg/mL): 0.04a
Revertants fold increase (over baseline) TA 98 S9+ ([3]; 2.5 mg/mL): 0.00^a
Revertants fold increase (over baseline) TA 98 S9− ([3]; 2.5 mg/mL): 0.00^a
Revertants fold increase (over baseline) TA 98 S9+ ([3]; 5 mg/mL): 0.00^a
Revertants fold increase (over baseline) TA 98 S9− ([3]; 5 mg/mL): 0.04^a
mutagenicity classification against TA98 [3]: non-mutagenic
